Laboratory results published in ChEMBL document CHEMBL1133642, “Difluoro ketone peptidomimetics suggest a large S1 pocket for Alzheimer's gamma-secretase: implications for inhibitor design” (J Med Chem, 2000).

Assays:
[1] = Concentration required for 50% inhibition of Amyloid beta protein production in Amyloid precursor protein (APP)-transfected Chinese hamster ovary(CHO) cells; assay type: functional; conditions: Cricetulus griseus
[2] = Inhibition of Amyloid beta protein production at 25 uM in Amyloid precursor protein (APP)-transfected Chinese hamster ovary(CHO) cells; assay type: functional; conditions: Cricetulus griseus

| SMILES | IC50 [1] [µM] | inhibition at 25 µM [2] [%] |
| --- | --- | --- |
| CCC(C)[C@H](NC(=O)[C@@H](NC(=O)C(F)(F)C(=O)[C@@H](NC(=O)[C@@H](NC(=O)OC(C)(C)C)C(C)C)C(C)CC)C(C)C)C(=O)OC (stereo partly specified) | 6 | – |
| CCC(C)[C@H](NC(=O)[C@@H](NC(=O)C(F)(F)C(=O)[C@H](C)NC(=O)[C@@H](NC(=O)OC(C)(C)C)C(C)C)C(C)C)C(=O)N(C)C (stereo partly specified) | 25 | – |
| CCC(C)[C@H](NC(=O)[C@@H](NC(=O)C(F)(F)C(=O)[C@H](CC1CCCCC1)NC(=O)[C@@H](NC(=O)OC(C)(C)C)C(C)C)C(C)C)C(=O)OC (stereo partly specified) | 4 | – |
| CCC(C)[C@H](NC(=O)[C@@H](NC(=O)C(F)(F)C(=O)[C@@H](NC(=O)[C@@H](NC(=O)OC(C)(C)C)C(C)C)C(C)C)C(C)C)C(=O)OC (stereo partly specified) | 9 | – |

More lines, main results first:

| IC50 [1] [µM] | SMILES | inhibition at 25 µM [2] [%] |
| --- | --- | --- |
| 6 | CCC(C)[C@H](NC(=O)[C@@H](NC(=O)C(F)(F)C(=O)[C@H](CC1CCCCC1)NC(=O)[C@@H](NC(=O)OC(C)(C)C)C(C)C)C(C)C)C(=O)OCc1ccccc1 (stereo partly specified) | – |
| 9 | CCOC(=O)[C@@H](NC(=O)[C@@H](NC(=O)C(F)(F)C(=O)[C@H](C)NC(=O)[C@@H](NC(=O)OC(C)(C)C)C(C)C)C(C)C)C(C)CC (stereo partly specified) | – |
| 15 | CCC(C)[C@H](NC(=O)[C@@H](NC(=O)C(F)(F)C(=O)[C@H](C)NC(=O)[C@@H](NC(=O)OC(C)(C)C)C(C)C)C(C)C)C(=O)OC (stereo partly specified) | ≥ 65 |
| 4 | CCC(C)[C@H](NC(=O)[C@@H](NC(=O)C(F)(F)C(=O)[C@H](C)NC(=O)[C@@H](NC(=O)OC(C)(C)C)C(C)C)C(C)C)C(=O)OCc1ccccc1 (stereo partly specified) | – |
| 9 | CCC(C)[C@H](NC(=O)[C@@H](NC(=O)C(F)(F)C(=O)[C@@H](NC(=O)[C@@H](NC(=O)OC(C)(C)C)C(C)C)c1ccccc1)C(C)C)C(=O)OC (stereo partly specified) | – |
| < 100 | CCC(C)[C@H](NC(=O)[C@@H](NC(=O)C(F)(F)C(=O)[C@H](C)NC(=O)[C@@H](NC(=O)OC(C)(C)C)C(C)C)C(C)C)C(=O)NC (stereo partly specified) | – |
